Results taken from patent EP4660196A1, “CRYSTAL FORM OF COMPOUND, PREPARATION METHOD THEREFOR AND USE THEREOF” (Felicamed Biotechnology Co., Ltd., priority 2023, dated 2024).
Values joined by “and” are separate entries in the source; they are usually repeats but may differ in a detail not shown here. Equal values may be shown once. Read-outs that look alike come from different tables or passages of the source.

Assays:
[1] = Mechanical stability (grinding, tableting at 350 MPa, XRPD); format: physicochemical
[2] = for Carr index: (tapped density - bulk density) / tapped density; for Average angle of repose (°) / Average bulk density / Average tapped density: mean of three tests
Description: A method for testing the density and the tapped density included: (1) a certain mass of to-be-assessed sample was placed into a 5 mL measuring cylinder, and the volume at this moment was recorded. The bulk density was calculated by dividing the mass of the sample by the volume at this moment. (2) The measuring cylinder was slightly tapped 200 times, the final volume was recorded, and the tapped density was calculated by dividing the mass of the sample by the final volume. (3) Three parallel tests were conducted. A method for testing the angle of repose included: (1) a funnel was fixed vertically to a bottom surface, and the material was slowly placed into the funnel. (2) A well-proportioned cone of the material was formed on the bottom surface. The height and bottom surface diameter of the cone were measured. (3) Three parallel tests were conducted.
Angle of repose α = […], where h is the cone height, and D is the cone diameter.

[3] = in vivo; parameters: species or system Sprague-Dawely rats; details: rat, po
Description: Sprague-Dawely rats (SPF grade) used in this experiment were purchased from Zhejiang Charles River Experimental Animal Technology Co., Ltd. with the production license No. SCXK (Zhe) 2019-0001 and the animal qualification certificate No. 20220107Aazz0619000738 and 20220107Aazz0619000691. A body weight range of males was 206.6 g to 234.5 g, and a body weight range of females was 188.4 g to 205.9 g.
In this experiment, all animals were randomly divided into 5 groups (5 animals/sex/group), received the drug at 97 mg/kg, 174 mg/kg, 312 mg/kg, 559 mg/kg, and 1000 mg/kg, respectively, and received signal intragastric administration orally. […] All animals received administration according to their latest weighed body weight. The drug was stirred for at least 10 min before administration, and continuously stirred during administration until the administration of the sample at this concentration was completed. […]
All animals underwent a comprehensive physical examination by a veterinarian before administration. […] All surviving animals were weighed once on the day of random grouping (Day-1), Day 1 (before administration), Day 3, Day 5, Day 7, and Day 8; and their 24±1-hour food consumption was measured once on Day 1 (Day 1 to Day 2), Day 2 (Day 2 to Day 3), and Day 6 (Day 6 to Day 7). […]

[4] = format: physicochemical; details: 37°C; for S: solubility: calculated as free form; for FC: crystal transfer: XRPD of solid; for pH: pH of filtrate
[5] = Urine and fecal excretion after single intragastric administration; details: dog, po, 6 mg/kg
[6] = format: physicochemical; details: for S: solubility: 1440 min; for FC: crystal transfer: XRPD of solid; for pH: pH of filtrate
[7] = DVS
Description: DVS isotherms were collected on an SMS (Surface Measurement Systems) DVS Intrinsic. Relative humidity at 25°C was calibrated using the deliquescence points of LiCl, Mg(NO3)2, and KCl. Table 9 DVS testing parameters

[8] = single values of three parallel tests

CC[S@@](=N)(=O)C[C@H]1CC[C@H](N(C)c2ncnc3[nH]ccc23)CC1 [Free crystal form A]
Results of mechanical stability After grinding ([1]; manual grinding): The crystal form remains unchanged, but the crystallinity is slightly reduced
Results of mechanical stability After tableting ([1]; tablet press, 350 MPa): The crystal form remains unchanged, but the crystallinity is slightly reduced
Carr index [2]: 51%
Carr index ([2]; listed as free crystal form A): 51%
Average angle of repose (°) [2]: 47.1 °
Average bulk density [2]: 0.11 g/mL
Average tapped density [2]: 0.23 g/mL
Average angle of repose (°) ([2]; listed as free crystal form A): 47.1 °
Average bulk density ([2]; listed as free crystal form A): 0.11 g/mL
Average tapped density ([2]; listed as free crystal form A): 0.23 g/mL
Angle of repose (°) [2, 8]: 49.0 ° and 47.3 ° and 45.0 °
Bulk density [2, 8]: 0.11 g/mL
Tapped density ([2]; tapped 200 times, single values of three parallel tests): 0.23 g/mL and 0.22 g/mL
MTD at 168 h [3]: 174 mg/kg
S: solubility ([4]; FaSSIF, 1 h, 60 min): 2200 µg/mL
S: solubility ([4]; FaSSIF, 2 h, 120 min): 2200 µg/mL
S: solubility ([4]; FaSSIF, 4 h, 240 min): 2300 µg/mL
S: solubility ([4]; FaSSIF, 24 h, 1440 min): 2400 µg/mL
S: solubility ([4]; H2O, 1 h, 60 min): 2100 µg/mL
S: solubility ([4]; H2O, 2 h, 120 min): 2100 µg/mL
S: solubility ([4]; H2O, 4 h, 240 min): 2200 µg/mL
S: solubility ([4]; H2O, 24 h, 1440 min): 2400 µg/mL
FC: crystal transfer ([4]; FaSSIF, 1 h): No
FC: crystal transfer ([4]; FaSSIF, 2 h): No
FC: crystal transfer ([4]; FaSSIF, 4 h): No
FC: crystal transfer ([4]; FaSSIF, 24 h): No
FC: crystal transfer ([4]; FeSSIF, 1 h): No
FC: crystal transfer ([4]; FeSSIF, 2 h): No
FC: crystal transfer ([4]; FeSSIF, 4 h): No
FC: crystal transfer ([4]; FeSSIF, 24 h): No
FC: crystal transfer ([4]; H2O, 1 h): No
FC: crystal transfer ([4]; H2O, 2 h): No
FC: crystal transfer ([4]; H2O, 4 h): No
FC: crystal transfer ([4]; H2O, 24 h): No
FC: crystal transfer ([4]; SGF, 1 h): No
FC: crystal transfer ([4]; SGF, 2 h): No
FC: crystal transfer ([4]; SGF, 4 h): No
FC: crystal transfer ([4]; SGF, 24 h): No
pH ([4]; FaSSIF, 1 h): 6.6
pH ([4]; FaSSIF, 2 h): 6.6
pH ([4]; FaSSIF, 4 h): 6.6
pH ([4]; FaSSIF, 24 h): 6.6
pH ([4]; FeSSIF, 1 h): 5.3
pH ([4]; FeSSIF, 2 h): 5.3
pH ([4]; FeSSIF, 4 h): 5.3
pH ([4]; FeSSIF, 24 h): 5.3
pH ([4]; H2O, 1 h): 6.7
pH ([4]; H2O, 2 h): 6.6
pH ([4]; H2O, 4 h): 6.7
pH ([4]; H2O, 24 h): 7.3
pH ([4]; SGF, 1 h): 5.1
pH ([4]; SGF, 2 h): 5.2
pH ([4]; SGF, 4 h): 5.2
pH ([4]; SGF, 24 h): 5.2
dose excreted at 120 h ([5]; cage rinse solution): 4.87 ± 3.09%
dose excreted at 120 h ([5]; feces): 3.48 ± 0.663%
dose excreted at 120 h ([5]; urine and feces): 47.3 ± 9.62%
dose excreted at 120 h ([5]; urine, feces, cage rinse): 52.2%
dose excreted at 120 h ([5]; urine): 43.8 ± 9.97%
S: solubility ([6]; Buffer (pH=4.5), room temperature, 24 h, calculated as free form): >9100 µg/mL
FC: crystal transfer ([6]; Buffer (pH=2.0), 24 h): No
FC: crystal transfer ([6]; Buffer (pH=7.4), 24 h): No
S: solubility ([6]; buffer, pH 2, 1440 min): 6200 µg/mL
S: solubility ([6]; buffer, pH 4.5, 1440 min): > 9100 µg/mL
pH ([6]; Buffer (pH=2.0), room temperature, 24 h): 5.6
pH ([6]; Buffer (pH=4.5), room temperature, 24 h): 5.0
pH ([6]; Buffer (pH=7.4), room temperature, 24 h): 7.4
Hygroscopic weight gain (wt%) at 25°C/80% RH [7]: 0.39 wt%
Hygroscopic weight gain (wt%) at 25°C/80% RH ([7]; listed as free crystal form A): 0.39 wt%
